What was measured:
Type in all cases: in vivo, ICR strain male mice (Crj:CD-1)
leukocytes [1] = assay: Test for evaluating an efficacy on drug-induced leukopenia (cyclophosphamide); settings: for number of leukocytes, percentage based on Day 0 / number of leukocytes (mean ± S.D): cyclophosphamide 200 mg/kg i.p. Day 0
Procedure: The effect of sulphostin [3(S)-amino-1-((R)-amino(sulfoamino)phosphinyl)-2-piperidone] on drug-induced leukopenia was evaluated according to the method of Okabe et al. (Yakuri to Chiryo (Japanese Pharmacology and Therapeutics) Vol. 19, No. 6, p. 55, 1991).
ICR strain male mice (Crj:CD-1) aged 8 weeks were used in the test. The animals were divided into three groups of 3 or 4 animals per group.
On Day 0, cyclophosphamide was intraperitoneally administered once to all the groups in a dose of 200 mg/kg. From the next day, the following were intravenously and repeatedly administered to the groups, respectively, for 5 days (Day 1 to 5); the first group (a control group): physiological saline, the second group: sulphostin (30 mg/kg/day), and the third group: sulphostin (100 mg/kg/day). Blood was drawn from the posterior-eyehole venous plexus on Day 0 (before the administration of cyclophosphamide) and Days 2, 4, 6 and 8 (the blood drawing, however, was carried out only on Days 0, 4 and 6 in the case of the second group), and the number of leukocytes was periodically measured to investigate the leukocyte-increasing effect of sulphostin relative to a decrease of leukocytes caused by cyclophosphamide.
The data are expressed as the mean±S.D and percentages based on the number of leukocytes on Day 0. ND refers to no data.

leukocytes [2] = assay: Test for investigating the increase of leukocytes in normal mice; settings: blood on day after last administration
Procedure: ICR strain male mice (Crj:CD-1) aged 7 weeks were used in the test. The animals were divided into 5 groups of 4 animals per group. The following were intravenously and repeatedly administered to the groups, respectively, for 5 days; the first group: physiological saline as solvent, the second group: sulphostin (2 mg/kg/day), the third group: sulphostin (10 mg/kg/day), the fourth group: sulphostin (50 mg/kg/day), and the fifth group: sulphostin (250 mg/kg/day). On the day subsequent to the last day of the administration period, blood was drawn from the abdominal aorta under anesthesia and the number of leukocytes was measured.

G-CSF = assay: Test for investigating the increase of G-CSF concentration in normal mice (plasma, mouse G-CSF ELISA); settings: blood on day after completion
Procedure: ICR strain male mice (Crj:CD-1) aged 7 weeks were used in the test. The animals were divided into 4 groups of 5 animals per group. The following were intravenously and repeatedly administered to the groups, respectively, for 5 days; the first group: physiological saline as solvent, the second group: sulphostin (10 mg/kg/day), the third group: sulphostin (30 mg/kg/day), and the fourth group: sulphostin (90 mg/kg/day). On the day subsequent to completion of the administration, blood was drawn from the abdominal aorta under anesthesia. The blood obtained was centrifuged to collect plasma, and G-CSF was measured by the use of a mouse G-CSF ELISA measuring kit (R & D SYSTEMS Inc.).

[3] = sulphostin 10 mg/kg/day i.v. for 5 days

N[C@H]1CCCN([P@@](N)(=O)NS(=O)(=O)O)C1=O [Sulphostin, 3(S)-amino-1-((R)-amino(sulfoamino)-phosphinyl)-2-piperidone]
number of leukocytes, percentage based on Day 0 (leukocytes [1]; sulphostin 30 mg/kg/day i.v. Day 1 to 5, Day 0 (before cyclophosphamide)): 100%
number of leukocytes (mean ± S.D) (leukocytes [1]; sulphostin 30 mg/kg/day i.v. Day 1 to 5, Day 0 (before cyclophosphamide), n = 3): 44 ± 7.1 ×100/millimeter cube
number of leukocytes, percentage based on Day 0 (leukocytes [1]; sulphostin 30 mg/kg/day i.v. Day 1 to 5, Day 4): 30%
number of leukocytes (mean ± S.D) (leukocytes [1]; sulphostin 30 mg/kg/day i.v. Day 1 to 5, Day 4, n = 3): 13 ± 12.5 ×100/millimeter cube
number of leukocytes, percentage based on Day 0 (leukocytes [1]; sulphostin 30 mg/kg/day i.v. Day 1 to 5, Day 6): 95%
number of leukocytes (mean ± S.D) (leukocytes [1]; sulphostin 30 mg/kg/day i.v. Day 1 to 5, Day 6, n = 3): 42 ± 14.5 ×100/millimeter cube
number of leukocytes, percentage based on Day 0 (leukocytes [1]; sulphostin 100 mg/kg/day i.v. Day 1 to 5, Day 0 (before cyclophosphamide)): 100%
number of leukocytes (mean ± S.D) (leukocytes [1]; sulphostin 100 mg/kg/day i.v. Day 1 to 5, Day 0 (before cyclophosphamide), n = 4): 38 ± 17.2 ×100/millimeter cube
number of leukocytes, percentage based on Day 0 (leukocytes [1]; sulphostin 100 mg/kg/day i.v. Day 1 to 5, Day 2): 55%
number of leukocytes (mean ± S.D) (leukocytes [1]; sulphostin 100 mg/kg/day i.v. Day 1 to 5, Day 2, n = 4): 21 ± 5.1 ×100/millimeter cube
number of leukocytes, percentage based on Day 0 (leukocytes [1]; sulphostin 100 mg/kg/day i.v. Day 1 to 5, Day 4): 26%
number of leukocytes (mean ± S.D) (leukocytes [1]; sulphostin 100 mg/kg/day i.v. Day 1 to 5, Day 4, n = 4): 10 ± 6.3 ×100/millimeter cube
number of leukocytes, percentage based on Day 0 (leukocytes [1]; sulphostin 100 mg/kg/day i.v. Day 1 to 5, Day 6): 126%
number of leukocytes (mean ± S.D) (leukocytes [1]; sulphostin 100 mg/kg/day i.v. Day 1 to 5, Day 6, n = 4): 48 ± 23.8 ×100/millimeter cube
number of leukocytes, percentage based on Day 0 (leukocytes [1]; sulphostin 100 mg/kg/day i.v. Day 1 to 5, Day 8): 668%
number of leukocytes (mean ± S.D) (leukocytes [1]; sulphostin 100 mg/kg/day i.v. Day 1 to 5, Day 8, n = 4): 254 ± 75.5 ×100/millimeter cube
restoration of the number of leukocytes to the initial value after the administration of cyclophosphamide, time required (leukocytes [1]; sulphostin-treated groups (30 and 100 mg/kg/day i.v.), control group requires 8 days): 6 days
number of leukocytes larger than that of the control group by factor (leukocytes [2]; sulphostin 2 mg/kg/day i.v. for 5 days): 1.4
number of leukocytes larger than that of the control group by factor (leukocytes [2]; [3]): 1.9
number of leukocytes larger than that of the control group by factor (leukocytes [2]; sulphostin 50 mg/kg/day i.v. for 5 days): 4.9
number of leukocytes larger than that of the control group by factor (leukocytes [2]; sulphostin 250 mg/kg/day i.v. for 5 days): 5.9
G-CSF level higher than that of the control group by factor (G-CSF; [3]): 1.03
G-CSF level higher than that of the control group by factor (G-CSF; sulphostin 30 mg/kg/day i.v. for 5 days): 6.1
G-CSF level higher than that of the control group by factor (G-CSF; sulphostin 90 mg/kg/day i.v. for 5 days): 7.0

— US7247640B2, “Medicament for treatment of bone marrow suppression, for treatment of infectious diseases and for increasing the number of leukocytes” (Nippon Kayaku Kabushiki Kaisha, priority 2001, dated 2007)
